Patent publication US20240208961A1, “EIF4E INHIBITORS AND USES THEREOF” (PIC Therapeutics, Inc., priority 2022, published 2024)
Where “and” joins values, the source holds several entries; their conditions need not be identical. Equal entries are not always repeated. Where two headings read alike, the source gives them in different places.

Test: Pharmacokinetic study of I-11 in female BALB/c mice (Example 4)
Type: in vivo, Balb/c mouse
Description: Pharmacokinetic Study in Female BALB/c Mice: Balb/c mouse, 17-19 g, 8-10 weeks, female, N=27, purchased from JH Laboratory Animal Co. LTD
Fasted overnight and fed at 4 hr post dosing.
Animals dosed with sampling at 0.083, 0.25, 0.5, 1, 2, 4, 8, 24 hr post dose. 8 time points. Semi-serial bleeding for plasma only. The animals were restrained manually at the designated time points. Approx. 110 μL of blood/time point was taken from the animals via facial vein into tubes with K2EDTA. Blood sample was centrifuged at 4° C. (2000 g, 5 min) to obtain plasma within 15 m after sample collection. Put on wet ice, then plasma samples were stored at approximately −70° C. until analysis.
For oral gavage, compound was dosed as a suspension in […] carboxymethyl cellulose (CMC), 0.2% Tween 80 in water. Compound was orally dosed at 50 mg/Kg, at 100 mg/Kg.
For IV dosing, compound was dissolved into a solution of […], […] HS 15 and 90% Saline. Compound was IV dosed at 5 mg/Kg.
Plasma samples were analyzed for I-11 using LC-MS using a calibration curve of known concentrations.
FIG. 1 describes the mean plasma concentration-time profiles of I-11 after single IV dose of 5 mg/kg, PO dose of 50 mg/kg and 100 mg/kg in female Balb/c mice (N=3/time point). • Note: • 1. […] The IV dosing solutions were prepared in 5% DMSO+5% Solutol HS15+90% Saline. The PO dosing solutions were prepared in 1% CMC-Na+0.2% Tween 80 in water. • 3. BQL=Below quantifiable limit of 3.00 ng/mL for I-11 in female Balb/c mouse plasma samples. • 4. PK parameters were estimated by non-compartmental model using WinNonlin 8.2. If the adjusted rsq (linear regression coefficient of the concentration value on the terminal phase) is less than 0.9, T1/2 might not be accurately estimated. • 5. F value was determined by the following equation: • If AUClast/AUCINF>80%:
F=(AUCINF-EX×DOSEIV)/(AUCINF-IV×DOSEEX)[…] • If AUClast/AUCINF<80% or AUCINF not available:
F=([…])/(AUClast-IV×DOSEEX)[…] • 6. NA: Not available.

[1] = IV 5 mg/kg, 24 hr, BQL = below quantifiable limit of 3.00 ng/mL

Question: With CC(C)Cc1sc(Nc2ncc(-c3cccs3)cc2C(=O)O)nc1C(C)(C)C [Compound I-11] as the compound, how does the “Plasma concentration Individual” value (IV 5 mg/kg, 0.083 hr, 5 mg/kg) read?
Answer: The value was 9810 ng/mL and 12300 ng/mL.

Question: And the “Plasma concentration Individual” value (IV 5 mg/kg, 0.25 hr, 5 mg/kg)?
Answer: Its value is 5200 ng/mL and 5420 ng/mL.

Question: And the “Plasma concentration Individual” value (IV 5 mg/kg, 0.5 hr, 5 mg/kg)?
Answer: The value was 2920 ng/mL and 1730 ng/mL.

Question: What about the “Plasma concentration Individual” value (IV 5 mg/kg, 1 hr, 5 mg/kg) of the same compound?
Answer: The value was 865 ng/mL and 1180 ng/mL and 1810 ng/mL.

Question: What about the “Plasma concentration Individual” value (IV 5 mg/kg, 2 hr, 5 mg/kg) of the same compound?
Answer: Its value is 142 ng/mL.

Question: And the “Plasma concentration Individual” value (IV 5 mg/kg, 4 hr, 5 mg/kg)?
Answer: The value was 48.5 ng/mL and 29.8 ng/mL.

Question: What about the “Plasma concentration Individual” value (IV 5 mg/kg, 8 hr, 5 mg/kg) of the same compound?
Answer: The value was 26.1 ng/mL and 15.9 ng/mL.

Question: And the “Plasma concentration Individual” value [1]?
Answer: The value was “BQL”.

Question: And the “Plasma concentration Mean” value [1]?
Answer: Its value is “BQL”.

Question: What about the “abnormal clinical symptoms during in-life study” value (IV 5 mg/kg, PO 50 and 100 mg/kg single dose) of the same compound?
Answer: The value was “No abnormal clinical symptoms were observed”.

Question: What about the F (PO 50 mg/kg vs IV 5 mg/kg) of the same compound?
Answer: The F was 50.9%.

Question: What about the “Plasma concentration Individual” value (PO 50 mg/kg, 0.083 hr, 50 mg/kg) of the same compound?
Answer: Its value is 288 ng/mL and 220 ng/mL.

Question: What about the “Plasma concentration Individual” value (PO 50 mg/kg, 0.25 hr, 50 mg/kg) of the same compound?
Answer: The value was 1880 ng/mL and 2380 ng/mL and 1030 ng/mL.

Question: And the “Plasma concentration Individual” value (PO 50 mg/kg, 0.5 hr, 50 mg/kg)?
Answer: Its value is 6750 ng/mL and 6980 ng/mL.

Question: What about the “Plasma concentration Individual” value (PO 50 mg/kg, 1 hr, 50 mg/kg) of the same compound?
Answer: Its value is 5940 ng/mL and 6670 ng/mL.

Question: What about the “Plasma concentration Individual” value (PO 50 mg/kg, 2 hr, 50 mg/kg) of the same compound?
Answer: Its value is 7770 ng/mL and 3890 ng/mL.

Question: And the “Plasma concentration Individual” value (PO 50 mg/kg, 4 hr, 50 mg/kg)?
Answer: Its value is 1750 ng/mL and 2280 ng/mL.

Question: What about the “Plasma concentration Individual” value (PO 50 mg/kg, 8 hr, 50 mg/kg) of the same compound?
Answer: The value was 249 ng/mL and 325 ng/mL.

Question: What about the “Plasma concentration Individual” value (PO 50 mg/kg, 24 hr, 50 mg/kg) of the same compound?
Answer: The value was 3.85 ng/mL and 64.0 ng/mL and 182 ng/mL.

Question: And the F (PO 100 mg/kg vs IV 5 mg/kg)?
Answer: The F was 60.0%.

Question: And the “Plasma concentration Individual” value (PO 100 mg/kg, 0.083 hr, 100 mg/kg)?
Answer: The value was 318 ng/mL and 232 ng/mL.

Question: And the “Plasma concentration Individual” value (PO 100 mg/kg, 0.25 hr, 100 mg/kg)?
Answer: Its value is 2990 ng/mL and 2700 ng/mL.

Question: What about the “Plasma concentration Individual” value (PO 100 mg/kg, 0.5 hr, 100 mg/kg) of the same compound?
Answer: The value was 4890 ng/mL and 6670 ng/mL and 11900 ng/mL.

Question: What about the “Plasma concentration Individual” value (PO 100 mg/kg, 1 hr, 100 mg/kg) of the same compound?
Answer: The value was 6710 ng/mL and 7030 ng/mL.

Question: What about the “Plasma concentration Individual” value (PO 100 mg/kg, 2 hr, 100 mg/kg) of the same compound?
Answer: The value was 14100 ng/mL and 12300 ng/mL.

Question: What about the “Plasma concentration Individual” value (PO 100 mg/kg, 4 hr, 100 mg/kg) of the same compound?
Answer: The value was 4840 ng/mL and 6930 ng/mL and 12800 ng/mL.

Question: And the “Plasma concentration Individual” value (PO 100 mg/kg, 8 hr, 100 mg/kg)?
Answer: The value was 444 ng/mL and 503 ng/mL and 953 ng/mL.

Question: What about the “Plasma concentration Individual” value (PO 100 mg/kg, 24 hr, 100 mg/kg) of the same compound?
Answer: The value was 40.6 ng/mL and 57.5 ng/mL and 84.2 ng/mL.

Question: What about the clearance (female, BALB/c, mouse, plasma, iv, 5 mg/kg, IV 5 mg/kg) of the same compound?
Answer: The clearance was 15.8 mL/min/kg.

Question: And the concentration at 0.083 hr (female, BALB/c, mouse, plasma, iv, 5 mg/kg, IV 5 mg/kg, 0.083 hr, read-out: Plasma concentration Individual)?
Answer: Its concentration at 0.083 hr is 7980 ng/mL.

Question: And the concentration at 0.083 hr (female, BALB/c, mouse, plasma, iv, 5 mg/kg, IV 5 mg/kg, 0.083 hr, read-out: Plasma concentration Mean)?
Answer: Its concentration at 0.083 hr is 10000 ng/mL.

Question: What about the concentration at 0.25 hr (female, BALB/c, mouse, plasma, iv, 5 mg/kg, IV 5 mg/kg, 0.25 hr, read-out: Plasma concentration Individual) of the same compound?
Answer: The concentration at 0.25 hr was 5600 ng/mL.

Question: And the concentration at 0.25 hr (female, BALB/c, mouse, plasma, iv, 5 mg/kg, IV 5 mg/kg, 0.25 hr, read-out: Plasma concentration Mean)?
Answer: The concentration at 0.25 hr was 5410 ng/mL.

Question: And the concentration at 0.5 hr (female, BALB/c, mouse, plasma, iv, 5 mg/kg, IV 5 mg/kg, 0.5 hr, read-out: Plasma concentration Individual)?
Answer: Its concentration at 0.5 hr is 2710 ng/mL.

Question: And the concentration at 0.5 hr (female, BALB/c, mouse, plasma, iv, 5 mg/kg, IV 5 mg/kg, 0.5 hr, read-out: Plasma concentration Mean)?
Answer: The concentration at 0.5 hr was 2450 ng/mL.

Question: And the concentration at 1 hr (female, BALB/c, mouse, plasma, iv, 5 mg/kg, IV 5 mg/kg, 1 hr, read-out: Plasma concentration Mean)?
Answer: The concentration at 1 hr was 1280 ng/mL.

Question: And the concentration at 2 hr (female, BALB/c, mouse, plasma, iv, 5 mg/kg, IV 5 mg/kg, 2 hr, read-out: Plasma concentration Individual)?
Answer: Its concentration at 2 hr is 135 ng/mL.

Question: And the concentration at 2 hr (female, BALB/c, mouse, plasma, iv, 5 mg/kg, IV 5 mg/kg, 2 hr, read-out: Plasma concentration Mean)?
Answer: The concentration at 2 hr was 140 ng/mL.

Question: What about the concentration at 4 hr (female, BALB/c, mouse, plasma, iv, 5 mg/kg, IV 5 mg/kg, 4 hr, read-out: Plasma concentration Individual) of the same compound?
Answer: Its concentration at 4 hr is 58.3 ng/mL.

Question: What about the concentration at 4 hr (female, BALB/c, mouse, plasma, iv, 5 mg/kg, IV 5 mg/kg, 4 hr, read-out: Plasma concentration Mean) of the same compound?
Answer: Its concentration at 4 hr is 45.5 ng/mL.

Question: What about the concentration at 8 hr (female, BALB/c, mouse, plasma, iv, 5 mg/kg, IV 5 mg/kg, 8 hr, read-out: Plasma concentration Individual) of the same compound?
Answer: Its concentration at 8 hr is 19 ng/mL.

Question: What about the concentration at 8 hr (female, BALB/c, mouse, plasma, iv, 5 mg/kg, IV 5 mg/kg, 8 hr, read-out: Plasma concentration Mean) of the same compound?
Answer: The concentration at 8 hr was 20.3 ng/mL.

Question: And the concentration at 0.083 hr (female, BALB/c, mouse, plasma, po, 50 mg/kg, PO 50 mg/kg, 0.083 hr, read-out: Plasma concentration Individual)?
Answer: Its concentration at 0.083 hr is 263 ng/mL.

Question: And the concentration at 0.083 hr (female, BALB/c, mouse, plasma, po, 50 mg/kg, PO 50 mg/kg, 0.083 hr, read-out: Plasma concentration Mean)?
Answer: The concentration at 0.083 hr was 257 ng/mL.

Question: What about the concentration at 0.25 hr (female, BALB/c, mouse, plasma, po, 50 mg/kg, PO 50 mg/kg, 0.25 hr, read-out: Plasma concentration Mean) of the same compound?
Answer: Its concentration at 0.25 hr is 1760 ng/mL.
